The source of these data is ChEMBL document CHEMBL5365436, “Novel Amphibian Bowman-Birk-Like Inhibitor with Antioxidant and Anticoagulant Effects Ameliorates Pancreatitis Symptoms in Mice” (J Med Chem, 2023).

Assay [1] relates to Mus musculus. Briefly: Anti-inflammatory activity in L-arginine-induced acute pancreatitis in BALB/c mouse model assessed as inhibition of trypsin activity at 50 mg/kg preincubated with compound followed by L-Arg induction for 1 hr and measured after 24 hrs. Format: functional, organism-based. As to conditions: time 25.0 hrs.
In assay [2] the test system is Mus musculus. In words: Anti-inflammatory activity in L-arginine-induced acute pancreatitis in BALB/c mouse model assessed as reduction in serum amylase at 50 mg/kg preincubated with compound followed by L-Arg induction for 1 hr and measured after 24 hrs by automatic analyzer. Format: functional, organism-based. To be noted: time 25.0 hrs.
The test system of assay [3] is Mus musculus. Briefly: Anti-inflammatory activity in L-arginine-induced acute pancreatitis in BALB/c mouse model assessed as reduction in IL-6 level at 50 mg/kg preincubated with compound followed by L-Arg induction for 1 hr and measured after 24 hrs by ELISA method. As to conditions: time 25.0 hrs. Format: functional, organism-based.
The species named for assay [4] is Mus musculus. Briefly: Antithrombotic activity in L-arginine-induced acute pancreatitis in BALB/c mouse model assessed as prolongation of plasma recalcification time preincubated with compound followed by L-Arg induction for 1 hr and measured after 24 hrs by fluorescence based analysis. Format: functional, organism-based. As to conditions: dose 0.1-50 µM, time 25.0 hrs.

Assay [5] deals with Mus musculus. In words: Anti-inflammatory activity in L-arginine-induced acute pancreatitis in BALB/c mouse model assessed as inhibition of trypsin activity at 1.25 to 5 mg/kg preincubated with compound followed by L-Arg induction for 1 hr and measured after 24 hrs. Format: functional, organism-based. To be noted: dose 1.25-5 mg/kg, time 25.0 hrs.
For assay [6], the system named is Mus musculus. In words: Antioxidant activity in L-arginine-induced acute pancreatitis in BALB/c mouse model assessed as decrease in MDA level at 1.25 to 5 mg/kg by DCFH-DA staining method. Format: functional, organism-based. To be noted: dose 1.25-5 mg/kg.
The nature of assay [7]: Antioxidant activity assessed as ferric reducing capacity at 40 uM measured at 10 min by FRAP assay (reference value: 20.87 %). Format: functional. The arrangement: scale not given: the % may be the effect or the level left.
Assay [8] concerns the target T1, Trypsin (Homo sapiens, UniProt P07477+P07478+P35030). Briefly: Binding affinity to trypsin (unknown origin) assessed as dissociation constant by surface plasmon resonance imaging method. Format: protein assay.
Assay [9] concerns Mus musculus. Briefly: Anti-inflammatory activity in L-arginine-induced acute pancreatitis in BALB/c mouse model assessed as reduction in hemorrhage in pancreas at 1.25 to 5 mg/kg preincubated with compound followed by L-Arg induction for 1 hr and measured after 24 hrs by H and E staining based analysis. Format: functional, organism-based. To be noted: dose 1.25-5 mg/kg, time 25.0 hrs.

In assay [10] the target is T1, Trypsin. Briefly: Inhibition of trypsin (unknown origin) assessed as inhibition of casein hydrolysis using S2238 as chromogenic substrate preincubated for 5 mins followed by substrate addition and measured after 11 mins by absorbance based analysis. Format: protein assay. To be noted: dose 0.3125-10 µM, time 16.0 min.
Assay [11] has as its system Mus musculus. In words: Anti-inflammatory activity in L-arginine-induced acute pancreatitis in BALB/c mouse model assessed as improvement in neutrophil level in spleen at 1.25 to 5 mg/kg preincubated with compound followed by L-Arg induction for 1 hr and measured after 24 hrs by flow cytometry analysis. Format: functional, organism-based. To be noted: dose 1.25-5 mg/kg, time 25.0 hrs.

Assay [12] deals with Mus musculus. In words: Anti-inflammatory activity in L-arginine-induced acute pancreatitis in BALB/c mouse model assessed as decrease in platelet to lymphocyte ratio at 5 mg/kg preincubated with compound followed by L-Arg induction for 1 hr and measured after 24 hrs. Format: functional, organism-based. To be noted: time 25.0 hrs.
For assay [13], the species on record is Mus musculus. Briefly: Anti-inflammatory activity in L-arginine-induced acute pancreatitis in BALB/c mouse model assessed as reduction in serum amylase preincubated with compound followed by L-Arg induction for 1 hr and measured after 24 hrs by automatic analyzer. Format: functional, organism-based. As to conditions: dose 1.25-5 mg/kg, time 25.0 hrs.
Assay [14] has as its system Mus musculus. Briefly: Antithrombotic activity in L-arginine-induced acute pancreatitis in BALB/c mouse model assessed as reduction in thrombosis by measuring fluorescence intensity at 5 mg/kg preincubated with compound followed by L-Arg induction for 1 hr and measured after 24 hrs by imaging based analysis (reference value: 24497.7). As to conditions: time 25 hrs. Format: functional.

Assay [15] is filed under the species Mus musculus. Briefly: Anti-inflammatory activity in L-arginine-induced acute pancreatitis in BALB/c mouse model assessed as reduction in IL-6 level preincubated with compound followed by L-Arg induction for 1 hr and measured after 24 hrs by ELISA method. Format: functional, organism-based. As to conditions: dose 1.25-5 mg/kg, time 25.0 hrs.
Assay [16] concerns Mus musculus. In words: Antioxidant activity in L-arginine-induced acute pancreatitis in BALB/c mouse model assessed as reversal of GSH level at 1.25 to 5 mg/kg by DCFH-DA staining method. Format: functional, organism-based. As to conditions: dose 1.25-5 mg/kg.
Assay [17] is filed under the species Mus musculus. Briefly: Anti-inflammatory activity in L-arginine-induced acute pancreatitis in BALB/c mouse model assessed as inhibition of increase in myeloperoxidase activity at preincubated with compound followed by L-Arg induction for 1 hr and measured after 24 hrs. Format: functional, organism-based. As to conditions: dose 1.25-5 mg/kg, time 25.0 hrs.
The nature of assay [18]: Antioxidant activity assessed as DPPH radical scavenging activity at 40 uM measured at 10 min by microplate reader analysis relative to control. Format: functional.
In assay [19] the test system is Mus musculus. In words: Anti-inflammatory activity in L-arginine-induced acute pancreatitis in BALB/c mouse model assessed as reduction in neutrophil infiltration in pancreas at 1.25 to 5 mg/kg preincubated with compound followed by L-Arg induction for 1 hr and measured after 24 hrs by H and E staining based analysis. Format: functional, organism-based. As to conditions: dose 1.25-5 mg/kg, time 25.0 hrs.

In assay [20] the target is T1, Trypsin. Briefly: Binding affinity to trypsin (unknown origin) assessed as inhibition constant by Lineweaver-Burk plot analysis. Format: protein assay.
Assay [21] has as its system Mus musculus. In words: Anti-inflammatory activity in L-arginine-induced acute pancreatitis in BALB/c mouse model assessed as reduction in interstitial edema in pancreas at 1.25 to 5 mg/kg preincubated with compound followed by L-Arg induction for 1 hr and measured after 24 hrs by H and E staining based analysis. As to conditions: dose 1.25-5 mg/kg, time 25.0 hrs. Format: functional, organism-based.

In assay [22] the test system is Mus musculus. Briefly: Antithrombotic activity FeCl3-induced thrombosis in BALB/c mouse model assessed as carotid artery blood flow time at 5 mg/kg preincubated with compound followed by FeCl3 treatment for 1 hr and measured upto 12 mins by laser perfusion imaging method. Format: functional. To be noted: time 72 min, 1.2 h.
Assay [23] is filed under the species Mus musculus. In words: Antithrombotic activity in L-arginine-induced acute pancreatitis in BALB/c mouse model assessed as inhibition of thrombin induced platelet aggregation preincubated with compound followed by L-Arg induction for 1 hr and measured after 24 hrs by fluorescence based analysis. Format: functional, organism-based. To be noted: dose 12.5-50 µM, time 25.0 hrs.

The test system of assay [24] is Mus musculus. In words: Anti-inflammatory activity in L-arginine-induced acute pancreatitis in BALB/c mouse model assessed as reduction in acinar cell necrosis in pancreas at 1.25 to 5 mg/kg preincubated with compound followed by L-Arg induction for 1 hr and measured after 24 hrs by H and E staining based analysis. Format: functional, organism-based. To be noted: dose 1.25-5 mg/kg, time 25.0 hrs.

Assay [25] relates to Mus musculus. In words: Antioxidant activity in L-arginine-induced acute pancreatitis in BALB/c mouse model assessed as decrease in ROS accumulation at 1.25 to 5 mg/kg by DCFH-DA staining method. Format: functional, organism-based. As to conditions: dose 1.25-5 mg/kg.
The test system of assay [26] is Mus musculus. In words: Anti-inflammatory activity in L-arginine-induced acute pancreatitis in BALB/c mouse model assessed as decrease in neutrophil to lymphocyte ratio at 5 mg/kg preincubated with compound followed by L-Arg induction for 1 hr and measured after 24 hrs. Format: functional, organism-based. As to conditions: time 25.0 hrs.
Assay [27] is described as follows: Antioxidant activity assessed as ABTS radical scavenging activity at 40 uM measured at 10 min by microplate reader analysis relative to control. Format: functional.
For assay [28], the system named is Mus musculus. In words: Antioxidant activity in L-arginine-induced acute pancreatitis in BALB/c mouse model assessed as reversal of SOD activity at 1.25 to 5 mg/kg by DCFH-DA staining method. Format: functional, organism-based. As to conditions: dose 1.25-5 mg/kg.
For assay [29], the system named is Mus musculus. Briefly: Anti-inflammatory activity in L-arginine-induced acute pancreatitis in BALB/c mouse model assessed as reduction in necrosis in pancreas at 1.25 to 5 mg/kg preincubated with compound followed by L-Arg induction for 1 hr and measured after 24 hrs by H and E staining based analysis. As to conditions: dose 1.25-5 mg/kg, time 25.0 hrs. Format: functional, organism-based.

The source made the active and inactive calls. No cut-off for these calls is given here. Positions of bridges follow the written chain, without caps; N, C: chain ends. Residues, ends and D or L forms follow the SMILES beside them.

For `CC(=O)N[C@@H](CS)C(=O)O`, the outcome with Mus musculus [1], in the assay with Mus musculus [2] and with Mus musculus [3] was Active.

`CC(C)C[C@H](NC(=O)[C@@H]1CSSC[C@H](NC(=O)CNC(=O)[C@H](CO)NC(=O)[C@H](CC(C)C)NC(=O)[C@@H](N)CO)C(=O)N[C@@H](Cc2c[nH]c3ccccc23)C(=O)N[C@@H]([C@@H](C)O)C(=O)N[C@@H](CCCCN)C(=O)N[C@@H](CO)C(=O)N[C@@H](Cc2ccccc2)C(=O)N2CCC[C@H]2C(=O)N[C@@H](CCCNC(=N)N)C(=O)N[C@@H](CCCCN)C(=O)N2CCC[C@H]2C(=O)N1)C(=O)N[C@@H](CCCNC(=N)N)C(=O)O` (H-SLSGCWTKSFPRKPCLR-OH; disulfide 5-15): the Activity result in the assay listed under Mus musculus [4] was “Dose-Dependent Effect”; in [7], 66.5%; in the assay filed under Mus musculus [13] it was “Dose-Dependent Effect”; in the assay filed under Mus musculus [15], “Dose-Dependent Effect”; in the assay filed under Mus musculus [17] it was “Dose-Dependent Effect”; in assay [18], 33.1%. The Activity entry in the assay filed under Mus musculus [23] was “Dose-Dependent Effect”; in assay [27], 58.8%. Also, the result with Mus musculus [5], in the assay with Mus musculus [6], in the assay on Mus musculus [9], with Mus musculus [11], in the assay with Mus musculus [12] and in the assay with Mus musculus [16] was Active. The outcome in the assay on Mus musculus [19], in the assay with Mus musculus [21], in the assay with Mus musculus [24], with Mus musculus [25], in the assay with Mus musculus [26] and with Mus musculus [28] was Active. In addition, in the assay with Mus musculus [29], the result was Active. Moreover, at Trypsin [8], the equilibrium dissociation constant (Kd) is 1930 nM. Further, the inhibition result at Trypsin [10] is “Dose-Dependent Effect”. The Flu intensity with Mus musculus [14] was determined as 14936.4. In addition, the Ki on Trypsin [20] was determined as 2660 nM. For the same compound, the Time in the assay with Mus musculus [22] was determined as 12.46 min.
